In patent US11566022B2, “3-(5-methoxy-1-oxoisoindolin-2-yl)piperidine-2,6-dione derivatives and uses thereof” (NOVARTIS AG, priority 2019, dated 2023):

Target: HiBit-WIZ fusion protein (Homo sapiens, UniProt O95785+Q96SW2)
Test: Quantification of WIZ protein levels in HiBit tag fusion protein assay (WIZ HiBit assay in 293T cells)
Type: cell-based
Parameters: Dmax: dose or concentration left out as unconfirmed
Conditions: HEK-293T, 100 minus Amax; 293T cells; read-out: % degradation of WIZ (100-Amax)

Chain of HiBit-WIZ fusion protein (O95785 whole entry, the tested form may be a part): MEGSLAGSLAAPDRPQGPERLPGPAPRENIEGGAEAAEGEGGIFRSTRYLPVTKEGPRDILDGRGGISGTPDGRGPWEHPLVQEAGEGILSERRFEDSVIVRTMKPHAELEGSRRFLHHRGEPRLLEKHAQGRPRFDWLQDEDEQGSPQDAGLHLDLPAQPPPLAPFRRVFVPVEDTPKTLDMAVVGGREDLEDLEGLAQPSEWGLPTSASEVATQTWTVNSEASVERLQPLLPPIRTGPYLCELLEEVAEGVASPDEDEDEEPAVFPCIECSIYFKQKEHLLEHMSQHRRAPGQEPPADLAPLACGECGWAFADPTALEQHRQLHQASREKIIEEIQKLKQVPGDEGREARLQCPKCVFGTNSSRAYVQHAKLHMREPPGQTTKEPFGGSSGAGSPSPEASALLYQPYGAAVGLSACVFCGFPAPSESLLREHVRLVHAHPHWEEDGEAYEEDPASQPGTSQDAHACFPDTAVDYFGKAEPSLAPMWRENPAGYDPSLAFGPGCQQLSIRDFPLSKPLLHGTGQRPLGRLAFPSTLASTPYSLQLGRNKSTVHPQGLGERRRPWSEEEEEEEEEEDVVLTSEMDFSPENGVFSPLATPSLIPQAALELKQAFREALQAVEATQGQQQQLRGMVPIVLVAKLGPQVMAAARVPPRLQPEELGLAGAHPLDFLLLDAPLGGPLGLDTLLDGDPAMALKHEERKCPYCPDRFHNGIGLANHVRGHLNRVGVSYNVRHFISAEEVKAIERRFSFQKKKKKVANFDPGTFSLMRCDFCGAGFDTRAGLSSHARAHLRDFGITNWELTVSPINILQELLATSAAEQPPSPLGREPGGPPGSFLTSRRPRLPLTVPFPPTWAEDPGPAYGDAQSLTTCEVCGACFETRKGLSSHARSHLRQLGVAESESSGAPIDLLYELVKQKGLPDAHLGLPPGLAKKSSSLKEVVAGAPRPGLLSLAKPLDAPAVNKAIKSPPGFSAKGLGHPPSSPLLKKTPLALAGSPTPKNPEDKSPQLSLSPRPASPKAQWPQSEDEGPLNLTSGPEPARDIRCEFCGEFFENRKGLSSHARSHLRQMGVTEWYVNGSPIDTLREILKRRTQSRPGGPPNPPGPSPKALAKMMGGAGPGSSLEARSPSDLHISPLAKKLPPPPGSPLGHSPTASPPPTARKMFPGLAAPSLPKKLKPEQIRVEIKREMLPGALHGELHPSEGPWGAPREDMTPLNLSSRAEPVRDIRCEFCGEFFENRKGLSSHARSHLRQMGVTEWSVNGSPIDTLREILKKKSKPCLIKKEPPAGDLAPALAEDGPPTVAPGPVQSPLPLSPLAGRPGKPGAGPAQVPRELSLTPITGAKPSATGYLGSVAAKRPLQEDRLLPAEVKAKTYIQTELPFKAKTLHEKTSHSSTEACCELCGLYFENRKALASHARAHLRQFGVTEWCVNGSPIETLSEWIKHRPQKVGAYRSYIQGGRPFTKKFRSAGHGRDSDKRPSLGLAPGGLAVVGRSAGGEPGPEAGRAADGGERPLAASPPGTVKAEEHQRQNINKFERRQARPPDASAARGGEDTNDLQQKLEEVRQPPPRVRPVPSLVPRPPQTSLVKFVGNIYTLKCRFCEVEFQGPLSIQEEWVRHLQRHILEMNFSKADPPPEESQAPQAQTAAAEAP
Chain of HiBit-WIZ fusion protein (Q96SW2 whole entry, the tested form may be a part): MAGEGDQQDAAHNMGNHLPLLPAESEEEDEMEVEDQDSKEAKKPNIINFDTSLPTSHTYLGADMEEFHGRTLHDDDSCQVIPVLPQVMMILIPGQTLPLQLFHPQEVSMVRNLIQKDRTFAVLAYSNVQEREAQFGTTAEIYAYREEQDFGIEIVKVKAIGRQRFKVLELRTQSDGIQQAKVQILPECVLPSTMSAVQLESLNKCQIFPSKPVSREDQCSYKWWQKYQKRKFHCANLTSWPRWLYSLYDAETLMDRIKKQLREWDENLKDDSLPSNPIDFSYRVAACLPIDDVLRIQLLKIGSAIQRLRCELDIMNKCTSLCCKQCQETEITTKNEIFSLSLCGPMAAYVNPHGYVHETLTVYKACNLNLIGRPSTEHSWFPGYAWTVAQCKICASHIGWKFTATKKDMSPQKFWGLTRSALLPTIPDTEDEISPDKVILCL
Chain of HiBit-WIZ fusion protein (Q16531 whole entry partner, the tested form may be a part): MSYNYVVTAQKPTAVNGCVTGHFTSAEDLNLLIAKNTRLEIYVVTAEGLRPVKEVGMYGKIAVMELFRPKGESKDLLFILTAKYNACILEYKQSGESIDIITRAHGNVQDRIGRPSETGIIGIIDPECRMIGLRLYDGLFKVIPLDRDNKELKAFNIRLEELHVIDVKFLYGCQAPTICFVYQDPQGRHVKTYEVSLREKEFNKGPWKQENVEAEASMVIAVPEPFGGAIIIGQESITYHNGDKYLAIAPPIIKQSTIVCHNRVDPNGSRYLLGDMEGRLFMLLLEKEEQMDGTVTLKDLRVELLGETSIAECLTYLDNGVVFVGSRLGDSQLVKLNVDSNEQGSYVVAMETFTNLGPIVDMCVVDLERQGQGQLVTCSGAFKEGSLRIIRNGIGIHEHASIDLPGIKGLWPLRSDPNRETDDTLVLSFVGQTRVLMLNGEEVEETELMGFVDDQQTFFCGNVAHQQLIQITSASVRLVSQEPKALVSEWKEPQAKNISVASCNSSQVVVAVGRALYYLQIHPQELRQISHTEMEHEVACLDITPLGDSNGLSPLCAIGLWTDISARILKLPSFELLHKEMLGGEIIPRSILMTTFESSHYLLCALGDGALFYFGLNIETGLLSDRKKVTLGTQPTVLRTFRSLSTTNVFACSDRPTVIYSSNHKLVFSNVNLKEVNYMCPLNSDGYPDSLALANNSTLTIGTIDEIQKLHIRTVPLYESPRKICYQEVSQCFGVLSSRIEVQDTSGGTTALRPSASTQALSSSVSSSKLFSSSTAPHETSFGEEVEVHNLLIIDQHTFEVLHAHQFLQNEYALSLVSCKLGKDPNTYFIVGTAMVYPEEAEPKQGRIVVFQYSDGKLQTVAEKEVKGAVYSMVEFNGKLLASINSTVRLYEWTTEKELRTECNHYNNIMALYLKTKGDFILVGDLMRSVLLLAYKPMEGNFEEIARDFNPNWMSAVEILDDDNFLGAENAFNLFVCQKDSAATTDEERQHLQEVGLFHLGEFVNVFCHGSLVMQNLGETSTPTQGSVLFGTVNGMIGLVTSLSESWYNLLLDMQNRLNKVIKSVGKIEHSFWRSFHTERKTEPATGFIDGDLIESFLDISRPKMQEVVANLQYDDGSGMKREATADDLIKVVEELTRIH

Compared with `O=C1CCC(N2Cc3cc(OC[C@@H]4CCCCN4CC4CCN(Cc5ccccc5)CC4)ccc3C2=O)C(=O)N1` (stereo partly drawn) [Compound I-50aj], `O=C1CCC(N2Cc3cc(OC[C@H]4CCCCN4Cc4nccn4Cc4ccccc4)ccc3C2=O)C(=O)N1` (stereo partly drawn) [Compound I-50ax] is lower in Dmax: 99% for the first, 92.5% for the second.

Going from `O=C1CCC(N2Cc3cc(OC[C@@H]4CCCCN4Cc4ccc(N5CCCC5)nc4)ccc3C2=O)C(=O)N1` (stereo partly drawn) [Compound I-50ak] to `CCN(CC)c1ccc(CN2CCCC[C@H]2COc2ccc3c(c2)CN(C2CCC(=O)NC2=O)C3=O)cn1` (stereo partly drawn) [Compound I-50as], the Dmax rises from 81.3% to 84.3%.

Going from `O=C1CCC(N2Cc3cc(OC[C@@H]4CCCCN4Cc4c[nH]cn4)ccc3C2=O)C(=O)N1` (stereo partly drawn) [Compound I-50al] to `O=C1CCC(N2Cc3cc(OC[C@H]4CCCCN4Cc4cn[nH]c4)ccc3C2=O)C(=O)N1` (stereo partly drawn) [Compound I-50an], the Dmax rises from 54.1% to 82.2%.

Compared with `O=C1CCC(N2Cc3cc(OC[C@@H]4CCCCN4Cc4ccccc4OCC(=O)N4CCCCC4)ccc3C2=O)C(=O)N1` (stereo partly drawn) [Compound I-50am], `Cn1c(CN2CCCC[C@H]2COc2ccc3c(c2)CN(C2CCC(=O)NC2=O)C3=O)nc2ccccc21` (stereo partly drawn) [Compound I-50ap] is lower in Dmax: 40% for the first, 30.1% for the second.

Going from `Cc1noc(C)c1CN1CCCC[C@H]1COc1ccc2c(c1)CN(C1CCC(=O)NC1=O)C2=O` (stereo partly drawn) [Compound I-50ao] to `Cc1nnsc1CN1CCCC[C@H]1COc1ccc2c(c1)CN(C1CCC(=O)NC1=O)C2=O` (stereo partly drawn) [Compound I-50at], the Dmax falls from 96.8% to 9.8%.

Compared with `CC(C)(C)OC(=O)NC1(CN2CCCC[C@H]2COc2ccc3c(c2)CN(C2CCC(=O)NC2=O)C3=O)CCCC1` (stereo partly drawn) [Compound I-50aq], `CN(C)c1ncc(CN2CCCC[C@@H]2COc2ccc3c(c2)CN(C2CCC(=O)NC2=O)C3=O)cn1` (stereo partly drawn) [Compound I-50ar] is higher in Dmax: 15.4% for the first, 78.2% for the second.

First: CCOC(=O)c1cccc2[nH]nc(CN3CCCC[C@H]3COc3ccc4c(c3)CN(C3CCC(=O)NC3=O)C4=O)c12 (stereo partly drawn) [Compound I-50au]
Second: O=C1CCC(N2Cc3cc(OC[C@@H]4CCCCN4Cc4ccc(O)c(Cl)c4)ccc3C2=O)C(=O)N1 (stereo partly drawn) [Compound I-50b]
The Dmax of the first is lower: 24.2% for the first, 83% for the second.

First: N#Cc1cccc(Cn2cccc(CN3CCCC[C@H]3COc3ccc4c(c3)CN(C3CCC(=O)NC3=O)C4=O)c2=O)c1 (stereo partly drawn) [Compound I-50aw]
Second: Cc1nc(-c2cccc(CN3CCCC[C@H]3COc3ccc4c(c3)CN(C3CCC(=O)NC3=O)C4=O)c2)no1 (stereo partly drawn) [Compound I-50bb]
The Dmax of the first is lower: 24.5% for the first, 56.8% for the second.

In the case of `COC(=O)c1nn(-c2cccc(C(F)(F)F)c2)cc1CN1CCCC[C@H]1COc1ccc2c(c1)CN(C1CCC(=O)NC1=O)C2=O` (stereo partly drawn) [Compound I-50ay], the Dmax is reported as 25.7%.

Same assay, conditions: HEK-293T, DMSO-normalized, curve-fitted percentage of WIZ-HiBit remaining at 25 uM; 293T cells; read-out: WIZ Amax

Compared with `O=C1CCC(N2Cc3cc(OC[C@@H]4CCCCN4CC4CCN(Cc5ccccc5)CC4)ccc3C2=O)C(=O)N1` (stereo partly drawn) [Compound I-50aj], `O=C1CCC(N2Cc3cc(OC[C@H]4CCCCN4Cc4nccn4Cc4ccccc4)ccc3C2=O)C(=O)N1` (stereo partly drawn) [Compound I-50ax] is higher in remaining activity at up to 25 µM: 1% for the first, 7.5% for the second.

Going from `O=C1CCC(N2Cc3cc(OC[C@@H]4CCCCN4Cc4ccc(N5CCCC5)nc4)ccc3C2=O)C(=O)N1` (stereo partly drawn) [Compound I-50ak] to `CCN(CC)c1ccc(CN2CCCC[C@H]2COc2ccc3c(c2)CN(C2CCC(=O)NC2=O)C3=O)cn1` (stereo partly drawn) [Compound I-50as], the remaining activity at up to 25 µM falls from 18.7% to 15.7%.

Compared with `O=C1CCC(N2Cc3cc(OC[C@@H]4CCCCN4Cc4c[nH]cn4)ccc3C2=O)C(=O)N1` (stereo partly drawn) [Compound I-50al], `O=C1CCC(N2Cc3cc(OC[C@H]4CCCCN4Cc4cn[nH]c4)ccc3C2=O)C(=O)N1` (stereo partly drawn) [Compound I-50an] is lower in remaining activity at up to 25 µM: 45.9% for the first, 17.8% for the second.

First: O=C1CCC(N2Cc3cc(OC[C@@H]4CCCCN4Cc4ccccc4OCC(=O)N4CCCCC4)ccc3C2=O)C(=O)N1 (stereo partly drawn) [Compound I-50am]
Second: Cn1c(CN2CCCC[C@H]2COc2ccc3c(c2)CN(C2CCC(=O)NC2=O)C3=O)nc2ccccc21 (stereo partly drawn) [Compound I-50ap]
The remaining activity at up to 25 µM of the first is lower: 60% for the first, 69.9% for the second.

First: Cc1noc(C)c1CN1CCCC[C@H]1COc1ccc2c(c1)CN(C1CCC(=O)NC1=O)C2=O (stereo partly drawn) [Compound I-50ao]
Second: Cc1nnsc1CN1CCCC[C@H]1COc1ccc2c(c1)CN(C1CCC(=O)NC1=O)C2=O (stereo partly drawn) [Compound I-50at]
The remaining activity at up to 25 µM of the first is lower: 3.2% for the first, 90.2% for the second.

Compared with `CC(C)(C)OC(=O)NC1(CN2CCCC[C@H]2COc2ccc3c(c2)CN(C2CCC(=O)NC2=O)C3=O)CCCC1` (stereo partly drawn) [Compound I-50aq], `CN(C)c1ncc(CN2CCCC[C@@H]2COc2ccc3c(c2)CN(C2CCC(=O)NC2=O)C3=O)cn1` (stereo partly drawn) [Compound I-50ar] is lower in remaining activity at up to 25 µM: 84.6% for the first, 21.8% for the second.

First: CCOC(=O)c1cccc2[nH]nc(CN3CCCC[C@H]3COc3ccc4c(c3)CN(C3CCC(=O)NC3=O)C4=O)c12 (stereo partly drawn) [Compound I-50au]
Second: O=C1CCC(N2Cc3cc(OC[C@@H]4CCCCN4Cc4ccc(O)c(Cl)c4)ccc3C2=O)C(=O)N1 (stereo partly drawn) [Compound I-50b]
The remaining activity at up to 25 µM of the first is higher: 75.8% for the first, 17% for the second.

Going from `N#Cc1cccc(Cn2cccc(CN3CCCC[C@H]3COc3ccc4c(c3)CN(C3CCC(=O)NC3=O)C4=O)c2=O)c1` (stereo partly drawn) [Compound I-50aw] to `Cc1nc(-c2cccc(CN3CCCC[C@H]3COc3ccc4c(c3)CN(C3CCC(=O)NC3=O)C4=O)c2)no1` (stereo partly drawn) [Compound I-50bb], the remaining activity at up to 25 µM falls from 75.5% to 43.2%.

`COC(=O)c1nn(-c2cccc(C(F)(F)F)c2)cc1CN1CCCC[C@H]1COc1ccc2c(c1)CN(C1CCC(=O)NC1=O)C2=O` (stereo partly drawn) [Compound I-50ay] was tested, and the remaining activity at up to 25 µM was 74.3%.

Same assay, conditions: WIZ HiBit assay in 293T cells; 10-point, 5-fold dose response, highest concentration 25 μM, about 18 hours; read-out: WIZ AC50

First: O=C1CCC(N2Cc3cc(OC[C@@H]4CCCCN4CC4CCN(Cc5ccccc5)CC4)ccc3C2=O)C(=O)N1 (stereo partly drawn) [Compound I-50aj]
Second: O=C1CCC(N2Cc3cc(OC[C@H]4CCCCN4Cc4nccn4Cc4ccccc4)ccc3C2=O)C(=O)N1 (stereo partly drawn) [Compound I-50ax]
The DC50 of the first is 9.3-fold lower: 16 nM for the first, 149 nM for the second.

`O=C1CCC(N2Cc3cc(OC[C@@H]4CCCCN4Cc4ccc(N5CCCC5)nc4)ccc3C2=O)C(=O)N1` (stereo partly drawn) [Compound I-50ak] and `CCN(CC)c1ccc(CN2CCCC[C@H]2COc2ccc3c(c2)CN(C2CCC(=O)NC2=O)C3=O)cn1` (stereo partly drawn) [Compound I-50as] are within 1.5-fold of each other in DC50: 347 nM for the first, 327 nM for the second.

First: O=C1CCC(N2Cc3cc(OC[C@@H]4CCCCN4Cc4c[nH]cn4)ccc3C2=O)C(=O)N1 (stereo partly drawn) [Compound I-50al]
Second: O=C1CCC(N2Cc3cc(OC[C@H]4CCCCN4Cc4cn[nH]c4)ccc3C2=O)C(=O)N1 (stereo partly drawn) [Compound I-50an]
The DC50 of the first is higher: > 25000 nM for the first, 1710 nM for the second.

`O=C1CCC(N2Cc3cc(OC[C@@H]4CCCCN4Cc4ccccc4OCC(=O)N4CCCCC4)ccc3C2=O)C(=O)N1` (stereo partly drawn) [Compound I-50am] and `Cn1c(CN2CCCC[C@H]2COc2ccc3c(c2)CN(C2CCC(=O)NC2=O)C3=O)nc2ccccc21` (stereo partly drawn) [Compound I-50ap] cannot be ordered by DC50: > 25000 nM for the first, > 25000 nM for the second.

Compared with `Cc1noc(C)c1CN1CCCC[C@H]1COc1ccc2c(c1)CN(C1CCC(=O)NC1=O)C2=O` (stereo partly drawn) [Compound I-50ao], `Cc1nnsc1CN1CCCC[C@H]1COc1ccc2c(c1)CN(C1CCC(=O)NC1=O)C2=O` (stereo partly drawn) [Compound I-50at] is higher in DC50: 89 nM for the first, > 25000 nM for the second.

Compared with `CC(C)(C)OC(=O)NC1(CN2CCCC[C@H]2COc2ccc3c(c2)CN(C2CCC(=O)NC2=O)C3=O)CCCC1` (stereo partly drawn) [Compound I-50aq], `CN(C)c1ncc(CN2CCCC[C@@H]2COc2ccc3c(c2)CN(C2CCC(=O)NC2=O)C3=O)cn1` (stereo partly drawn) [Compound I-50ar] is lower in DC50: > 25000 nM for the first, 1140 nM for the second.

Compared with `CCOC(=O)c1cccc2[nH]nc(CN3CCCC[C@H]3COc3ccc4c(c3)CN(C3CCC(=O)NC3=O)C4=O)c12` (stereo partly drawn) [Compound I-50au], `O=C1CCC(N2Cc3cc(OC[C@@H]4CCCCN4Cc4ccc(O)c(Cl)c4)ccc3C2=O)C(=O)N1` (stereo partly drawn) [Compound I-50b] is lower in DC50: > 25000 nM for the first, 1480 nM for the second.

First: N#Cc1cccc(Cn2cccc(CN3CCCC[C@H]3COc3ccc4c(c3)CN(C3CCC(=O)NC3=O)C4=O)c2=O)c1 (stereo partly drawn) [Compound I-50aw]
Second: Cc1nc(-c2cccc(CN3CCCC[C@H]3COc3ccc4c(c3)CN(C3CCC(=O)NC3=O)C4=O)c2)no1 (stereo partly drawn) [Compound I-50bb]
The DC50 of the first is higher: > 25000 nM for the first, 18300 nM for the second.

`COC(=O)c1nn(-c2cccc(C(F)(F)F)c2)cc1CN1CCCC[C@H]1COc1ccc2c(c1)CN(C1CCC(=O)NC1=O)C2=O` (stereo partly drawn) [Compound I-50ay] was tested, and the DC50 was > 25000 nM.
